In patent US20230339970A1, “CASEIN KINASE 1 DELTA MODULATORS” (priority 2020, published 2023):

Columns and labels:
human CSNK1D = target: T1, human CSNK1D (Homo sapiens, UniProt P48730); experiment: Whole Cell nBRET CSNK1D Binding Assay; conditions: living CHO cells stably expressing human CSNK1D tagged with nanoluciferase; NanoBret tracer 130 nM; 2 hours at 37 C
T1 construct: expressed in transfected cells

[1] = target: T2, human recombinant GST cleaved CSNK1D (Homo sapiens, UniProt P48730); experiment: Purified Enzyme Assay (ADP-Glo CSNK1D Kinase Assay); type: biochemical; conditions: 2 nM CSNK1D; peptide substrate 150 μM; ATP 20 μM; 45 minutes at room temperature
T2 construct: GST (cleaved yes); purchased University of Dundee clone DU 19064
How it was run: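 GST-cleaved human recombinant CSNK1D phosphorylates peptide PLSRTL-pS-VASLPGL with ATP; compounds added in dose-response, 45 min at room temperature. ADP formed measured by ADP-Glo luminescence and converted to percent activity.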

T2 sequence (P48730 whole entry): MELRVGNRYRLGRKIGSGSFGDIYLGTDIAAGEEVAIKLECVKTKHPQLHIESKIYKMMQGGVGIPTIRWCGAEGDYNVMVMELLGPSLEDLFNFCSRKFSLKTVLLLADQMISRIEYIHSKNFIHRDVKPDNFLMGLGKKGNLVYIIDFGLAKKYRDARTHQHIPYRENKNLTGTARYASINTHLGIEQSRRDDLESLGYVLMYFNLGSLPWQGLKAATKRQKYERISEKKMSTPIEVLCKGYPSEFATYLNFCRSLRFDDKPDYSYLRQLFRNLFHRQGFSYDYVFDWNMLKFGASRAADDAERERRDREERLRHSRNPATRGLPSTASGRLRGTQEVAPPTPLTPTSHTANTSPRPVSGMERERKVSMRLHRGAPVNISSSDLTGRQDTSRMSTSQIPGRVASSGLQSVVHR
T1 sequence (P48730 whole entry): as above

An IC50 (human CSNK1D) of 0.131 µM and an IC50 [1] of 0.006 µM were found for `Fc1ccc(-c2nn3c(c2-c2ccnc4[nH]ncc24)C[C@H]2C[C@H]23)cc1` [Example 267, (4aR,5aR)-2-(4-Fluorophenyl)-3-(1H-pyrazolo[3,4-b]pyridin-4-yl)-4,4a,5,5a-tetrahydrocyclopropa[4,5]pyrrolo[1,2-b]pyrazole] in this work.
An IC50 (human CSNK1D) of 0.024 µM and an IC50 [1] of 0.012 µM were found for `Fc1ccc(-c2nn3c(c2-c2ccn4nccc4c2)OCC2(CC2)C3)cc1` [Example 466, 2′-(4-Fluorophenyl)-3′-(pyrazolo[1,5-a]pyridin-5-yl)-5′H,7′H-spiro[cyclopropane-1,6′-pyrazolo[5,1-b][1,3]oxazine]] in this work.
An IC50 (human CSNK1D) of 0.702 µM and an IC50 [1] of 0.015 µM were found for `CC1(C)Cn2nc(-c3c(F)cncc3F)c(-c3ccnc4[nH]ncc34)c2CO1` [Example 165, 2-(3,5-Difluoropyridin-4-yl)-6,6-dimethyl-3-(1H-pyrazolo[3,4-b]pyridin-4-yl)-6,7-dihydro-4H-pyrazolo[5,1-c][1,4]oxazine] in this work.
An IC50 (human CSNK1D) of 0.019 µM and an IC50 [1] of 0.002 µM were found for `Cc1cc(-c2c(-c3ccc(F)cn3)nn3c2C[C@@H]2C[C@@H]23)c2cn[nH]c2n1` [Example 28, (4aS,5aS)-2-(5-Fluoropyridin-2-yl)-3-(6-methyl-1H-pyrazolo[3,4-b]pyridin-4-yl)-4,4a,5,5a-tetrahydrocyclopropa[4,5]pyrrolo[1,2-b]pyrazole] in this work.
An IC50 (human CSNK1D) of 0.006 µM and an IC50 [1] of 0.001 µM were found for `Cc1cc(-c2c(-c3ccc(F)cc3)nn3c2OCC2(COC2)C3)c2cn[nH]c2n1` [Example 211, 2′-(4-Fluorophenyl)-3′-(6-methyl-1H-pyrazolo[3,4-b]pyridin-4-yl)-5′H,7′H-spiro[oxetane-3,6′-pyrazolo[5,1-b][1,3]oxazine]] in this work.
An IC50 (human CSNK1D) of 0.004 µM and an IC50 [1] of 0.001 µM were found for `Cc1cc(-c2c(-c3ccc(F)cc3)nn3c2COC(C)(C)C3)c2cn[nH]c2n1` [Example 145, 2-(4-Fluorophenyl)-6,6-dimethyl-3-(6-methyl-1H-pyrazolo[3,4-b]pyridin-4-yl)-6,7-dihydro-4H-pyrazolo[5,1-c][1,4]oxazine] in this work.
An IC50 (human CSNK1D) of 2.28 µM and an IC50 [1] of 0.031 µM were found for `CC(C)[C@H]1Cn2nc(-c3ccc(F)cn3)c(-c3ccnc4[nH]ncc34)c2CO1` (single isomer, unassigned) [Example 98, (*S)-2-(5-Fluoropyridin-2-yl)-6-isopropyl-3-(1H-pyrazolo[3,4-b]pyridin-4-yl)-6,7-dihydro-4H-pyrazolo[5,1-c][1,4]oxazine] in this work.
An IC50 (human CSNK1D) of 2.67 µM and an IC50 [1] of 0.063 µM were found for `Cc1cc(-c2c(-c3ccc(F)cn3)nn3c2CC2(C3)CC2(F)F)c2cn[nH]c2n1` (single isomer, unassigned) [Example 261, (*R)-1′,1′-Difluoro-2-(5-fluoro-2-pyridyl)-3-(6-methyl-1H-pyrazolo[3,4-b]pyridin-4-yl)spiro[4,6-dihydropyrrolo[1,2-b]pyrazole-5,2′-cyclopropane]] in this work.
An IC50 (human CSNK1D) of 0.025 µM and an IC50 [1] of 0.002 µM were found for `Cc1cc(-c2c(-c3ccc(F)cc3)nn3c2OCCCC3)c2cn[nH]c2n1` [Example 217, 2-(4-Fluorophenyl)-3-(6-methyl-1H-pyrazolo[3,4-b]pyridin-4-yl)-5,6,7,8-tetrahydropyrazolo[5,1-b][1,3]oxazepane] in this work.
An IC50 (human CSNK1D) of 0.163 µM and an IC50 [1] of 0.023 µM were found for `Fc1ccc(-c2nn3c(c2-c2c(F)cnc4[nH]ncc24)CC[C@@]2(C3)CC2(F)F)nc1` (single isomer, unassigned) [Example 329, (*S)-2,2-Difluoro-3′-(5-fluoro-1H-pyrazolo[3,4-b]pyridin-4-yl)-2′-(5-fluoropyridin-2-yl)-4′,5′-dihydro-7′H-spiro[cyclopropane-1,6′-pyrazolo[1,5-a]pyridine]] in this work.
An IC50 (human CSNK1D) of 0.115 µM and an IC50 [1] of 0.004 µM were found for `CC1(C)Cc2c(-c3cc(C(F)F)nc4[nH]ncc34)c(-c3ccc(F)cn3)nn2C1` [Example 239, 6-(Difluoromethyl)-4-[2-(5-fluoro-2-pyridyl)-5,5-dimethyl-4,6-dihydropyrrolo[1,2-b]pyrazol-3-yl]-1H-pyrazolo[3,4-b]pyridine] in this work.
An IC50 (human CSNK1D) of 0.171 µM and an IC50 [1] of 0.015 µM were found for `CC1(C)Cn2nc(-c3ccc(F)cn3)c(-c3ccn4ncc(Cl)c4c3)c2CO1` [Example 384, 3-(3-Chloropyrazolo[1,5-a]pyridin-5-yl)-2-(5-fluoropyridin-2-yl)-6,6-dimethyl-6,7-dihydro-4H-pyrazolo[5,1-c][1,4]oxazine] in this work.
An IC50 (human CSNK1D) of 0.056 µM and an IC50 [1] of 0.004 µM were found for `Cc1cc(-c2c(-c3ccc(F)cn3)nn3c2OC(C)CC3)c2cn[nH]c2n1` (single isomer, unassigned) [Example 200, (*S)-2-(5-Fluoro-2-pyridyl)-5-methyl-3-(6-methyl-1H-pyrazolo[3,4-b]pyridin-4-yl)-6,7-dihydro-5H-pyrazolo[5,1-b][1,3]oxazine] in this work.
An IC50 (human CSNK1D) of 0.238 µM and an IC50 [1] of 0.014 µM were found for `Fc1cnc(-c2nn3c(c2-c2ccnc4[nH]ncc24)CCCC3)c(F)c1` [Example 38, 4-[2-(3,5-Difluoro-2-pyridyl)-4,5,6,7-tetrahydropyrazolo[1,5-a]pyridin-3-yl]-1H-pyrazolo[3,4-b]pyridine] in this work.
An IC50 (human CSNK1D) of 0.017 µM and an IC50 [1] of 0.002 µM were found for `[2H]C([2H])([2H])C1(C([2H])([2H])[2H])Cn2nc(-c3ccc(F)cc3)c(-c3nc(C)nc4[nH]ncc34)c2CO1` [Example 410, 2-(4-Fluorophenyl)-6,6-bis(methyl-d3)-3-(6-methyl-1H-pyrazolo[3,4-d]pyrimidin-4-yl)-6,7-dihydro-4H-pyrazolo[5,1-c][1,4]oxazine] in this work.
An IC50 (human CSNK1D) of 3.83 µM and an IC50 [1] of 1.12 µM were found for `Fc1ccc(-c2nn3c(c2-c2ccn4nccc4c2)CC[C@H]2[C@@H]3C2(F)F)cc1` (stereo in doubt) [Example 353, (5a*S,6a*R)-6,6-Difluoro-2-(4-fluorophenyl)-3-(pyrazolo[1,5-a]pyridin-4-yl)-5,5a,6,6a-tetrahydro-4H-cyclopropa[e]pyrazolo[1,5-a]pyridine] in this work.
An IC50 (human CSNK1D) of 0.201 µM and an IC50 [1] of 0.013 µM were found for `CC1(C)COCc2c(-c3ccnc4[nH]ncc34)c(-c3ccc(F)cc3)nn21` [Example 120, 2-(4-Fluorophenyl)-7,7-dimethyl-3-(1H-pyrazolo[3,4-b]pyridin-4-yl)-4,6-dihydropyrazolo[5,1-c][1,4]oxazine] in this work.
An IC50 (human CSNK1D) of 0.071 µM and an IC50 [1] of 0.018 µM were found for `Fc1ccc(-c2nn3c(c2-c2ccn4nccc4c2)CC[C@@H]2[C@H]3C2(F)F)cc1` (stereo in doubt) [Example 354, (5a*R,6a*S)-6,6-difluoro-2-(4-fluorophenyl)-3-(pyrazolo[1,5-a]pyridin-4-yl)-5,5a,6,6a-tetrahydro-4H-cyclopropa[e]pyrazolo[1,5-a]pyridine] in this work.
An IC50 (human CSNK1D) of 0.171 µM and an IC50 [1] of 0.005 µM were found for `C[C@H]1C[C@H](C)n2nc(-c3ccc(F)cn3)c(-c3ccnc4[nH]ncc34)c2O1` (single isomer, unassigned) [Example 205, (5*S,7*S)-2-(5-Fluoropyridin-2-yl)-5,7-dimethyl-3-(1H-pyrazolo[3,4-b]pyridin-4-yl)-6,7-dihydro-5H-pyrazolo[5,1-b][1,3]oxazine] in this work.
An IC50 (human CSNK1D) of 0.023 µM and an IC50 [1] of 0.005 µM were found for `[2H]C([2H])([2H])C1(C([2H])([2H])[2H])Cn2nc(-c3ccc(F)cn3)c(-c3c(F)cnc4[nH]nc(Cl)c34)c2CO1` [Example 403, 3-(3-Chloro-5-fluoro-1H-pyrazolo[3,4-b]pyridin-4-yl)-2-(5-fluoropyridin-2-yl)-6,6-bis(methyl-d3)-6,7-dihydro-4H-pyrazolo[5,1-c][1,4]oxazine] in this work.
An IC50 (human CSNK1D) of 0.02 µM and an IC50 [1] of 0.002 µM were found for `Cc1nc2[nH]ncc2c(-c2c(-c3ccc(F)cn3)nn3c2OCC2(CC2)C3)c1F` [Example 463, 3′-(5-Fluoro-6-methyl-1H-pyrazolo[3,4-b]pyridin-4-yl)-2′-(5-fluoropyridin-2-yl)-5′H,7′H-spiro[cyclopropane-1,6′-pyrazolo[5,1-b][1,3]oxazine]] in this work.
An IC50 (human CSNK1D) of 1.41 µM and an IC50 [1] of 0.092 µM were found for `[2H]C([2H])([2H])OC[C@@]1(F)CCc2c(-c3cc(C)nc4[nH]ncc34)c(-c3ccc(F)cn3)nn2C1` (single isomer, unassigned) [Example 311, (*R)-4-(6-Fluoro-2-(5-fluoropyridin-2-yl)-6-((methoxy-d3)methyl)-4,5,6,7-tetrahydropyrazolo[1,5-a]pyridin-3-yl)-6-methyl-1H-pyrazolo[3,4-b]pyridine] in this work.
An IC50 (human CSNK1D) of 0.072 µM and an IC50 [1] of 0.009 µM were found for `Cc1cc(-c2c(-c3ccc(F)cc3)nn3c2COCC32CC2)c2cn[nH]c2n1` [Example 107, 2′-(4-Fluorophenyl)-3′-(6-methyl-1H-pyrazolo[3,4-b]pyridin-4-yl)-4′H,6′H-spiro[cyclopropane-1,7-pyrazolo[5,1-c][1,4]oxazine]] in this work.
An IC50 (human CSNK1D) of 0.239 µM and an IC50 [1] of 0.012 µM were found for `Fc1ccc(-c2nn3c(c2-c2ccnc4[nH]ncc24)OCCCC3)nc1` [Example 218, 2-(5-Fluoro-2-pyridyl)-3-(1H-pyrazolo[3,4-b]pyridin-4-yl)-5,6,7,8-tetrahydropyrazolo[5,1-b][1,3]oxazepane] in this work.
An IC50 (human CSNK1D) of 0.058 µM and an IC50 [1] of 0.005 µM were found for `Cc1cc(-c2c(-c3ccc(F)cc3)nn3c2C(C)(C)CC3)c2cn[nH]c2n1` [Example 246, 4-[2-(4-Fluorophenyl)-4,4-dimethyl-5,6-dihydropyrrolo[1,2-b]pyrazol-3-yl]-6-methyl-1H-pyrazolo[3,4-b]pyridine] in this work.
An IC50 (human CSNK1D) of 0.075 µM and an IC50 [1] of 0.008 µM were found for `Nc1cc(-c2c(-c3ccc(F)cc3)nn3c2CCC(F)(F)C3)ccn1` [Example 41, 4-(6,6-Difluoro-2-(4-fluorophenyl)-4,5,6,7-tetrahydropyrazolo[1,5-a]pyridin-3-yl)pyridin-2-amine] in this work.
An IC50 (human CSNK1D) of 0.014 µM and an IC50 [1] of 0.001 µM were found for `Nc1cc(-c2c(-c3ccc(F)cc3)nn3c2C[C@H](F)C3)ccn1` [Example 10, (S)-4-(5-Fluoro-2-(4-fluorophenyl)-5,6-dihydro-4H-pyrrolo[1,2-b]pyrazol-3-yl)pyridin-2-amine] in this work.
